This note sets out measurements from patent publication US8551937B2, “Peptide having an extending action for half-life of object peptide in plasma” (priority 2008, dated 2013).

Each structure is given as a SMILES string. Where a SMILES comes first, the peptide text is derived from it.

One series can be described thus: Motilin immunoreactivity concentration in plasma, half-life after intravenous administration (Example 8). To be noted: male, SD, rat, in vivo, iv, 10 nmol/kg. On the procedure:
The experiment was carried out using rats into which polyethylene tube (PE-50 manufactured by Clay Adams) was inserted into thigh artery under an anesthetized condition with Nembutal. As to a test system, male SD strain rats (Nippon Charles River) of 7 weeks age were used where one group comprised 3 rats. Human motilin or a derivative thereof in a dose of 10 nmol/kg was administered into tail vein of the rat and the blood before the administration and until 60 minutes after the administration was periodically collected by a polyethylene tube inserted into the thigh artery. To the collected blood were added EDTA (manufactured by Dojin Laboratories) and aprotinin (manufactured by Bayer) as a stabilizer and an anti-coagulant, respectively and the plasma was separated therefrom by centrifugal separation. Motilin immunoreactivity concentration in plasma was measured by a competitive radioimmunoassay (RIA) (FIG. 8). At that time, a rabbit polyclonal antibody (#870623) which specifically recognizes the amino acid numbers 1 to 12 of native motilin shown by SEQ ID No: 102 was used as an antibody and, as a labeled compound, ^125I-[Tyr^7] human motilin was used.
As to `CC[C@H](C)[C@H](NC(=O)[C@@H]1CCCN1C(=O)[C@@H](NC(=O)[C@@H](N)Cc1ccccc1)C(C)C)C(=O)N[C@@H](Cc1ccccc1)C(=O)N[C@H](C(=O)N[C@@H](Cc1ccc(O)cc1)C(=O)NCC(=O)N[C@@H](CCC(=O)O)C(=O)N[C@@H](CC(C)C)C(=O)N[C@@H](CCC(N)=O)C(=O)N[C@@H](CCCNC(=N)N)C(=O)N[C@H](C(=O)N[C@@H](CCC(N)=O)C(=O)N[C@@H](CCC(N)=O)C(=O)N[C@@H](CCCNC(=N)N)C(=O)N[C@@H](CCCCN)C(=O)N[C@@H](CCC(N)=O)C(=O)N[C@@H](CO)C(=O)N[C@@H](CCCCN)C(=O)N[C@@H](CCCCN)C(=O)N1CCC[C@H]1C(=O)N1CCC[C@H]1C(=O)N[C@@H](C)C(=O)N[C@@H](CCCCN)C(=O)N[C@@H](CC(C)C)C(=O)N[C@@H](CCC(N)=O)C(=O)N1CCC[C@H]1C(=O)N[C@@H](CCCNC(=N)N)C(=O)O)C(C)C)[C@@H](C)O` [Chimeric motilin (U)(MG-17E/Q)] (H-FVPIFTYGELQRVQQRKQSKKPPAKLQPR-OH; N-terminus and C-terminus assumed), the half-life (as a rule, the time needed for the level to fall by half in the phase considered) was determined as 5.66 min.

`CC[C@H](C)[C@H](NC(=O)[C@@H]1CCCN1C(=O)[C@@H](NC(=O)[C@@H](N)Cc1ccccc1)C(C)C)C(=O)N[C@@H](Cc1ccccc1)C(=O)N[C@H](C(=O)N[C@@H](Cc1ccc(O)cc1)C(=O)NCC(=O)N[C@@H](CCC(=O)O)C(=O)N[C@@H](CC(C)C)C(=O)N[C@@H](CCC(N)=O)C(=O)N[C@@H](CCCNC(=N)N)C(=O)N[C@H](C(=O)N[C@@H](CCC(N)=O)C(=O)N[C@@H](CCC(N)=O)C(=O)N[C@@H](CCCNC(=N)N)C(=O)N[C@@H](CCCCN)C(=O)N[C@@H](CCC(=O)O)C(=O)N[C@@H](CO)C(=O)N[C@@H](CCCCN)C(=O)N[C@@H](CCCCN)C(=O)N1CCC[C@H]1C(=O)N1CCC[C@H]1C(=O)N[C@@H](C)C(=O)N[C@@H](CCC(=O)O)C(=O)N[C@@H](CC(C)C)C(=O)N[C@@H](C)C(=O)N[C@@H](C)C(=O)N[C@@H](CC(C)C)C(=O)N[C@@H](CCC(=O)O)C(=O)N[C@@H](C)C(=O)O)C(C)C)[C@@H](C)O` [Chimeric motilin (VII)(MG-H3)] (H-FVPIFTYGELQRVQQRKESKKPPAELAALEA-OH; N-terminus and C-terminus assumed) displayed a half-life of 12.8 min. This half-life lies about 2.3-fold higher than the previous one.

As to `CC[C@H](C)[C@H](NC(=O)[C@@H]1CCCN1C(=O)[C@@H](NC(=O)[C@@H](N)Cc1ccccc1)C(C)C)C(=O)N[C@@H](Cc1ccccc1)C(=O)N[C@H](C(=O)N[C@@H](Cc1ccc(O)cc1)C(=O)NCC(=O)N[C@@H](CCC(=O)O)C(=O)N[C@@H](CC(C)C)C(=O)N[C@@H](CCC(N)=O)C(=O)N[C@@H](CCCNC(=N)N)C(=O)N[C@H](C(=O)N[C@@H](CCC(N)=O)C(=O)N[C@@H](CCC(N)=O)C(=O)N[C@@H](CCCNC(=N)N)C(=O)N[C@@H](CCCCN)C(=O)N[C@@H](CCC(=O)O)C(=O)N[C@@H](CC(C)C)C(=O)N[C@@H](CCCCN)C(=O)N[C@@H](CCCCN)C(=O)N1CCC[C@H]1C(=O)N1CCC[C@H]1C(=O)N[C@@H](C)C(=O)N[C@@H](CCCCN)C(=O)N[C@@H](CC(C)C)C(=O)N[C@@H](CCC(N)=O)C(=O)N1CCC[C@H]1C(=O)N[C@@H](CCCNC(=N)N)C(=O)O)C(C)C)[C@@H](C)O` [Chimeric motilin (R)(MG-18S/L)] (H-FVPIFTYGELQRVQQRKELKKPPAKLQPR-OH; N-terminus and C-terminus assumed), the half-life is 9.13 min.

As for `CC[C@H](C)[C@H](NC(=O)[C@H](CCSC)NC(=O)[C@@H]1CCCN1C(=O)[C@@H]1CCCN1C(=O)[C@H](CCCCN)NC(=O)[C@H](CCCCN)NC(=O)[C@H](CO)NC(=O)[C@H](CCC(=O)O)NC(=O)[C@H](CCCCN)NC(=O)[C@H](CCCNC(=N)N)NC(=O)[C@H](CCC(N)=O)NC(=O)[C@H](CCC(N)=O)NC(=O)[C@@H](NC(=O)[C@H](CCCNC(=N)N)NC(=O)[C@H](CCC(N)=O)NC(=O)[C@H](CC(C)C)NC(=O)[C@H](CCC(=O)O)NC(=O)CNC(=O)[C@H](Cc1ccc(O)cc1)NC(=O)[C@@H](NC(=O)[C@H](Cc1ccccc1)NC(=O)[C@@H](NC(=O)[C@@H]1CCCN1C(=O)[C@@H](NC(=O)[C@@H](N)Cc1ccccc1)C(C)C)[C@@H](C)CC)[C@@H](C)O)C(C)C)C(=O)N[C@H](C(=O)N[C@H](C(=O)N[C@@H](CCCNC(=N)N)C(=O)O)[C@@H](C)CC)[C@@H](C)O` [Chimeric motilin (X)(MG-S)] (H-FVPIFTYGELQRVQQRKESKKPPMITIR-OH; N-terminus and C-terminus assumed), the half-life was determined as 5.25 min.

`CC[C@H](C)[C@H](NC(=O)[C@@H]1CCCN1C(=O)[C@@H](NC(=O)[C@@H](N)Cc1ccccc1)C(C)C)C(=O)N[C@@H](Cc1ccccc1)C(=O)N[C@H](C(=O)N[C@@H](Cc1ccc(O)cc1)C(=O)NCC(=O)N[C@@H](CCC(=O)O)C(=O)N[C@@H](CC(C)C)C(=O)N[C@@H](CCC(N)=O)C(=O)N[C@@H](CCCNC(=N)N)C(=O)N[C@H](C(=O)N[C@@H](CCC(N)=O)C(=O)N[C@@H](CCC(N)=O)C(=O)N[C@@H](CCCNC(=N)N)C(=O)N[C@@H](CCCCN)C(=O)N[C@@H](CC(N)=O)C(=O)N[C@@H](CO)C(=O)N[C@@H](CCCCN)C(=O)N[C@@H](CCCCN)C(=O)N1CCC[C@H]1C(=O)N1CCC[C@H]1C(=O)N[C@@H](C)C(=O)N[C@@H](CCCCN)C(=O)N[C@@H](CC(C)C)C(=O)N[C@@H](CCC(N)=O)C(=O)N1CCC[C@H]1C(=O)N[C@@H](CCCNC(=N)N)C(=O)O)C(C)C)[C@@H](C)O` [Chimeric motilin (T)(MG-17E/N)] (H-FVPIFTYGELQRVQQRKNSKKPPAKLQPR-OH; N-terminus and C-terminus assumed): the half-life is 5.47 min.

For `CC[C@H](C)[C@H](NC(=O)[C@@H]1CCCN1C(=O)[C@@H](NC(=O)[C@@H](N)Cc1ccccc1)C(C)C)C(=O)N[C@@H](Cc1ccccc1)C(=O)N[C@H](C(=O)N[C@@H](Cc1ccc(O)cc1)C(=O)NCC(=O)N[C@@H](CCC(=O)O)C(=O)N[C@@H](CC(C)C)C(=O)N[C@@H](CCC(N)=O)C(=O)N[C@@H](CCCNC(=N)N)C(=O)N[C@H](C(=O)N[C@@H](CCC(N)=O)C(=O)N[C@@H](CCC(N)=O)C(=O)N[C@@H](CCCNC(=N)N)C(=O)N[C@@H](CCCCN)C(=O)NCC(=O)NCC(=O)N[C@@H](CCC(=O)O)C(=O)N[C@@H](CO)C(=O)NCC(=O)N[C@@H](CCCCN)C(=O)N[C@@H](CCCCN)C(=O)N1CCC[C@H]1C(=O)N1CCC[C@H]1C(=O)N[C@@H](C)C(=O)N[C@@H](CCCCN)C(=O)N[C@@H](CC(C)C)C(=O)N[C@@H](CCC(N)=O)C(=O)N1CCC[C@H]1C(=O)N[C@@H](CCCNC(=N)N)C(=O)O)C(C)C)[C@@H](C)O` [Chimeric motilin (III) (MG-i17G2-19iG)] (H-FVPIFTYGELQRVQQRKGGESGKKPPAKLQPR-OH; N-terminus and C-terminus assumed), the half-life is 10.7 min.

Regarding `CC[C@H](C)[C@H](NC(=O)[C@@H]1CCCN1C(=O)[C@@H](NC(=O)[C@@H](N)Cc1ccccc1)C(C)C)C(=O)N[C@@H](Cc1ccccc1)C(=O)N[C@H](C(=O)N[C@@H](Cc1ccc(O)cc1)C(=O)NCC(=O)N[C@@H](CCC(=O)O)C(=O)N[C@@H](CC(C)C)C(=O)N[C@@H](CCC(N)=O)C(=O)N[C@@H](CCCNC(=N)N)C(=O)N[C@H](C(=O)N[C@@H](CCC(N)=O)C(=O)N[C@@H](CCC(N)=O)C(=O)N[C@@H](CCCNC(=N)N)C(=O)N[C@@H](CCCCN)C(=O)N[C@@H](CCCCN)C(=O)N[C@@H](CCCCN)C(=O)N1CCC[C@H]1C(=O)N1CCC[C@H]1C(=O)N[C@@H](C)C(=O)N[C@@H](CCCCN)C(=O)N[C@@H](CC(C)C)C(=O)N[C@@H](CCC(N)=O)C(=O)N1CCC[C@H]1C(=O)N[C@@H](CCCNC(=N)N)C(=O)O)C(C)C)[C@@H](C)O` [Chimeric motilin (W)(MG-dES)] (H-FVPIFTYGELQRVQQRKKKPPAKLQPR-OH; N-terminus and C-terminus assumed), the half-life was 5.39 min.

Consider `CC[C@H](C)[C@H](NC(=O)[C@@H]1CCCN1C(=O)[C@@H](NC(=O)[C@@H](N)Cc1ccccc1)C(C)C)C(=O)N[C@@H](Cc1ccccc1)C(=O)N[C@H](C(=O)N[C@@H](Cc1ccc(O)cc1)C(=O)NCC(=O)N[C@@H](CCC(=O)O)C(=O)N[C@@H](CC(C)C)C(=O)N[C@@H](CCC(N)=O)C(=O)N[C@@H](CCCNC(=N)N)C(=O)N[C@H](C(=O)N[C@@H](CCC(N)=O)C(=O)N[C@@H](CCC(N)=O)C(=O)N[C@@H](CCCNC(=N)N)C(=O)N[C@@H](CCCCN)C(=O)N[C@@H](CC(=O)O)C(=O)N[C@@H](CO)C(=O)N[C@@H](CCCCN)C(=O)N[C@@H](CCCCN)C(=O)N1CCC[C@H]1C(=O)N1CCC[C@H]1C(=O)N[C@@H](C)C(=O)N[C@@H](CCCCN)C(=O)N[C@@H](CC(C)C)C(=O)N[C@@H](CCC(N)=O)C(=O)N1CCC[C@H]1C(=O)N[C@@H](CCCNC(=N)N)C(=O)O)C(C)C)[C@@H](C)O` [Chimeric motilin (V)(MG-ES/DS)] (H-FVPIFTYGELQRVQQRKDSKKPPAKLQPR-OH; N-terminus and C-terminus assumed), for which the half-life came out at 10.1 min. Compared with the last molecule, the half-life is about 1.9-fold higher.

The series is the same for the next values; noted with them: rat, in vivo, iv, 10 nmol/kg.
On to `CC[C@H](C)[C@H](NC(=O)[C@@H]1CCCN1C(=O)[C@@H](NC(=O)[C@@H](N)Cc1ccccc1)C(C)C)C(=O)N[C@@H](Cc1ccccc1)C(=O)N[C@H](C(=O)N[C@@H](Cc1ccc(O)cc1)C(=O)NCC(=O)N[C@@H](CCC(=O)O)C(=O)N[C@@H](CC(C)C)C(=O)N[C@@H](CCC(N)=O)C(=O)N[C@@H](CCCNC(=N)N)C(=O)N[C@H](C(=O)N[C@@H](CCC(N)=O)C(=O)N[C@@H](CCC(N)=O)C(=O)N[C@@H](CCCNC(=N)N)C(=O)N[C@@H](CCCCN)C(=O)N[C@@H](CCC(=O)O)C(=O)N[C@@H](CO)C(=O)N[C@@H](CCCCN)C(=O)N[C@@H](CCCCN)C(=O)N[C@@H](C)C(=O)N[C@@H](CCCCN)C(=O)N[C@@H](CC(C)C)C(=O)N[C@@H](CCC(N)=O)C(=O)N1CCC[C@H]1C(=O)N[C@@H](CCCNC(=N)N)C(=O)O)C(C)C)[C@@H](C)O` [Chimeric motilin (IV)(MG-dPP)] (H-FVPIFTYGELQRVQQRKESKKAKLQPR-OH; N-terminus and C-terminus assumed), for which the half-life was 7.73 min.
